IC50 data for 30 compounds are collected here from US20100173888A1 (Pfizer Inc, priority 2008, published 2010).

As a reminder, the IC50 is the concentration that inhibits the measured activity by half.

T1 sequence (O60760 whole entry): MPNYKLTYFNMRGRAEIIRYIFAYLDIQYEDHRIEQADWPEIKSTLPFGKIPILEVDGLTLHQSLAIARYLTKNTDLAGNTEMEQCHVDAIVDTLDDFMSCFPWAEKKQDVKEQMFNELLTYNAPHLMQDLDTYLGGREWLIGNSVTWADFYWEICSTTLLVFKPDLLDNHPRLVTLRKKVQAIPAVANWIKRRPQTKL

The target of one experiment is T1, human recombinant H-PGDS (Homo sapiens, UniProt O60760). The experiment in a line: Fluorescence intensity h-PGDS TBA enzyme assay (PGH2 depletion, MDA/TBA fluorescence). The class given is biochemical. The conditions noted are these: 1:175,000 human recombinant H-PGDS, 42 second reaction, 3-fold serial dilutions, highest concentration typically 1 μM. In outline:
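Recombinant human H-PGDS preincubated with inhibitor 10 min at room temperature in pH 8.0 Tris, MgCl2, IgG, 2.5 mM glutathione, 0.5% DMSO. Reaction with 5.0 μM PGH2 stopped at 42 s with FeCl2/citric acid; MDA–TBA fluorescence (ex 530/em 565 nm) read after 70° C. IC50 by 4-parameter fit, 11 concentrations.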
`CNC(=O)N[C@H]1CC[C@@H](NC(=O)c2ccc(-c3cccc(F)c3)nc2)CC1` [Example 236, 6-(3-Fluorophenyl)-N-{cis-4-[(methylcarbamoyl)amino]cyclohexyl}nicotinamide]: the IC50 came out at 5.7 nM. Same read-out and setting: the result for `C[C@H](O)C(=O)N[C@H]1CCC[C@H](NC(=O)c2ccc(-c3cccc(F)c3)nc2)C1` [Example 246, 6-(3-Fluorophenyl)-N-{trans-3-{[(2S)-2-hydroxypropanoyl]amino}cyclohexyl]nicotinamide] reads 16.2 nM. As to `O=C(N[C@@H]1CCC[C@H](CNC(=O)[C@@H]2CCCN2)C1)c1ccc(-c2cccc(F)c2)nc1` [Example 259], the IC50 was 44.1 nM. Same read-out and setting: the result for `O=C(N[C@H]1CCC[C@@H](C(=O)N2CCC(O)CC2)C1)c1ccc(-c2cccc(F)c2)nc1` [Example 260, 6-(3-Fluorophenyl)-N-{(1S,3R)-3-[(4-hydroxypiperidin-1-yl)carbonyl]cyclohexyl}nicotinamide] reads 59.9 nM.

Consider `Cc1noc(C[C@H]2CC[C@H](NC(=O)c3ccc(-c4cccc(F)c4)nc3)CC2)n1` [Example 261, 6-(3-Fluorophenyl)-N-[trans 4-(3-methyl-[1,2,4]oxadiazol-5-ylmethyl)cyclohexyl]nicotinamide], for which the IC50 was 4 nM.

Consider `CN1CCN(C(=O)C2(C#N)CCCC(NC(=O)c3ccc(-c4cccc(F)c4)nc3)C2)CC1` (stereo not drawn) [Example 263, N-{3-Cyano-3-[(4-methylpiperazin-1-yl)carbonyl]cyclohexyl}-6-(3-fluorophenyl)nicotinamide], for which the IC50 came out at 5 nM. On the same count and under the same terms, as for `CCN1CCN(C(=O)C2(C#N)CCCC(NC(=O)c3ccc(-c4cccc(F)c4)nc3)C2)CC1` (stereo not drawn) [Example 264, N-{3-Cyano-3-[(4-ethylpiperazin-1-yl)carbonyl]cyclohexyl}-6-(3-fluorophenyl)nicotinamide], the figure is 9.2 nM; as for `N#CC1(C(=O)N2CCOCC2)CCCC(NC(=O)c2ccc(-c3cccc(F)c3)nc2)C1` (stereo not drawn) [Example 265, N-[3-Cyano-3-(morpholin-4-ylcarbonyl)cyclohexyl]-6-(3-fluorophenyl)nicotinamide], 2.8 nM; as for `CN(C)C(=O)C1(C#N)CCCC(NC(=O)c2ccc(-c3cccc(F)c3)nc2)C1` (stereo not drawn) [Example 266, N-[3-Cyano-3-(dimethylcarbamoyl)cyclohexyl]-6-(3-fluorophenyl)nicotinamide], 10.6 nM. Still for that read-out and setting: as for `CNC(=O)N[C@H]1CC[C@H](NC(=O)c2ccc(-c3cccc(F)c3)nc2)CC1` [Example 270], the figure is 9.1 nM. Same read-out and setting: as for `CN(C)C(=O)N[C@H]1CC[C@H](NC(=O)c2ccc(-c3cccc(F)c3)nc2)CC1` [Example 271], the figure is 18 nM; as for `CNC(=O)N(C)[C@H]1CC[C@H](NC(=O)c2ccc(-c3cccc(F)c3)nc2)CC1` [Example 272, 6-(3-Fluorophenyl)-N-{trans-4-[methyl(methylcarbamoyl)amino]cyclohexyl}nicotinamide], 11 nM. For the compound `Cc1nnc(C[C@H]2CC[C@@H](NC(=O)c3ccc(-c4cccc(F)c4)nc3)CC2)o1` [Example 273, 6-(3-Fluorophenyl)-N-{cis-4-[(5-methyl-1,3,4-oxadiazolyl-2-yl)methyl]cyclohexyl}nicotinamide], the 50% inhibitory concentration (IC50) turned out to be 5.4 nM. Same read-out and setting: as for `CN1CCN(C(=O)C[C@H]2CC[C@@H](NC(=O)c3ccc(-c4cccc(F)c4)nc3)CC2)CC1` [Example 274, 6-(3-Fluorophenyl)-N-{cis-4-[2-(-methylpiperazin-1-yl)-2-oxoethyl]cyclohexyl}nicotinamide], the figure is 13.7 nM. Still for that read-out and setting: the result for `CC(C)(O)[C@H]1CC[C@@H](NC(=O)c2ccc(-c3cccc(F)c3)nc2)CC1` [Example 275, 6-(3-Fluorophenyl)-N-[cis-4-(1-hydroxy-1-methylethyl)cyclohexyl]nicotinamide] reads 81.8 nM.

For the next experiment, the target named is T1, human recombinant H-PGDS. The experiment can be described thus: Slightly modified fluorescence intensity h-PGDS TBA enzyme assay (1:40,000 enzyme, 40 second reaction, 1/2 log dilutions, top concentration typically 10 μM). In kind it is biochemical. The conditions noted are these: slightly modified assay: 1:40,000 human recombinant H-PGDS. The method, then:
Fluoresecence Intensity h-PGDSTBA Enzyme Assay
Prostaglandin D Synthase (PGDS) converts the substrate prostaglandin H2 (PGH2) to prostaglandin D2. The depletion of PGH2 was measured via an Fe(II) reduction of the remaining PGH2 to malondialdehyde (MDA) and 12-HHT. The enzyme assay is based on the quantitative formation of a fluorescent complex from the non-fluorescent compounds MDA and 2-thiobarbituric acid (TBA), substantially as described in U.S. patent application publication US-2004/152148 by Lombardt.
Examples 6-8, 11a-16, 23, 26-47, 49-103, 105-113, 115-118 and 126-128 were tested in a slightly modified assay: The enzyme assay (30 μls during biological process) contained 100 mM Trizma pH 8.0, 100 μM MgCl2, 0.1 mg/ml IgG Rabbit serum, 5.0 μM PGH2 (Cayman; ethanol solution, #17020), 2.5 mM L-Glutathione (Sigma; reduced form #G4251), 1:40,000 human recombinant H-PGDS (from 1 mg/ml), 0.5% DMSO and inhibitor (varying concentration). 3 μls of diluted inhibitor (dissolved in DMSO) was plated into a 384-well assay plate followed by a 24 μl addition of an enzyme solution containing h-PGDS, Trizma, MgCl2, IgG and L-Glutathione. After pre-incubation of inhibitor and enzyme solution for 10 minutes at room temperature, the reaction was initiated with a 3 μl addition of substrate solution in 10 mM HCl. The reaction was terminated after 40 second by the addition of 3 μl stop buffer containing FeCl2 and citric acid. After addition of 45 μls of TBA plates were heated for one hour in a 70° C. oven. Plates were cooled at room temperature overnight and read on a plate reader the next day with excitation @ 530 nm and emission @ 560 nm. IC50' s of inhibitors were calculated with a 4-parameter fit using 11 inhibitor concentrations in duplicate with ½ log serial dilutions. Controls on each plate included no inhibitor (zero % effect) and an inhibitor 500-fold in excess of its' IC50 (100% effect). The highest inhibitor concentration tested was typically 10 μM.
In the case of `N[C@H]1CCCC[C@@H]1NC(=O)[C@@H]1CCC[C@H](NC(=O)c2ccc(-c3cccc(F)c3)nc2)C1` (mixture of isomers) [Example 64B, N-[cis-3-{[(1S,2S)-2-aminocyclohexyl]carbamoyl}cyclohexyl]-6-(3-fluorophenyl)nicotinamide], the IC50 came out at 64.6 nM.

Consider `N[C@@H]1CCCC[C@H]1NC(=O)[C@@H]1CCC[C@H](NC(=O)c2ccc(-c3cccc(F)c3)nc2)C1` (mixture of isomers) [Example 64C, N-[cis-3-{[(1R,2R)-2-aminocyclohexyl]carbamoyl}cyclohexyl]-6-(3-fluorophenyl)nicotinamide], for which the concentration for half-maximal inhibition (IC50) was 47 nM. Still for that read-out and setting: the result for `O=C(N[C@H]1CCC[C@@H](C(=O)N[C@@H]2CCNC2=O)C1)c1ccc(-c2cccc(F)c2)nc1` (mixture of isomers) [Example 64G, 6-(3-fluorophenyl)-N-[cis-3-{[(3R)-2-oxopyrrolidin-3-yl]carbamoyl}cyclohexyl]nicotinamide] reads 17.2 nM; that for `O=C(N[C@H]1CCC[C@@H](C(=O)N[C@H]2CCNC2=O)C1)c1ccc(-c2cccc(F)c2)nc1` (mixture of isomers) [Example 64H, 6-(3-fluorophenyl)-N-[cis-3-{[(3S)-2-oxopyrrolidin-3-yl]carbamoyl}cyclohexyl]nicotinamide], 13 nM; that for `O=C(N[C@H]1CCC[C@@H](C(=O)N[C@@H]2CCOC2)C1)c1ccc(-c2cccc(F)c2)nc1` (mixture of isomers) [Example 64K, 6-(3-fluorophenyl)-N-{cis-3-[(3R)-tetrahydrofuran-3-ylcarbamoyl]cyclohexyl}nicotinamide], 10.9 nM. For the compound `N[C@H]1CCCC[C@H]1NC(=O)[C@@H]1CCC[C@H](NC(=O)c2ccc(-c3cccc(F)c3)nc2)C1` (mixture of isomers) [Example 64L, N-[(1S,3R)-3-{[cis-2-aminocyclohexyl]carbamoyl}cyclohexyl]-6-(3-fluorophenyl)nicotinamide], the IC50 was found to be 255 nM. With `CCN1CCN(C(=O)[C@H]2CCC[C@@H](NC(=O)c3ccc(-c4cccc(F)c4)nc3)C2)CC1` (racemic) [Example 41, N-{cis-3-[(4-Ethylpiperazin-1-yl)carbonyl]cyclohexyl}-6-(3-fluorophenyl)nicotinamide], the IC50 is 7.18 nM.

With `O=C(N[C@@H]1CCCC[C@@H]1O)c1ccc(-c2cccc(F)c2)nc1` (relative stereo) [Example 23], the half-inhibitory concentration (IC50) amounted to 17.4 nM. The same measure, in the same setting: the result for `O=C(N[C@@H]1CCC[C@H](O)C1)c1ccc(-c2cccc(F)c2)nc1` (relative stereo) [Example 26, 6-(3-Fluorophenyl)-N-[cis-3-hydroxycyclohexyl]nicotinamide] reads 18.2 nM; that for `O=C(N[C@@H]1CCC[C@H](C(=O)O)C1)c1ccc(-c2cccc(F)c2)nc1` (relative stereo) [Example 27, cis-3-({[6-(3-Fluorophenyl)pyridin-3-yl]carbonyl}amino)cyclohexanecarboxylic acid], 14.2 nM; that for `O=C(N[C@H]1CCC[C@@H](C(=O)N2CCC(O)CC2)C1)c1ccc(-c2cccc(F)c2)nc1` (relative stereo) [Example 28, 6-(3-Fluorophenyl)-N-{cis-3-[(4-hydroxypiperidin-1-yl)carbonyl]cyclohexyl}nicotinamide], 3.72 nM. Still for that read-out and setting: as for `O=C(N[C@H]1CCC[C@@H](C(=O)N2CCCC2)C1)c1ccc(-c2cccc(F)c2)nc1` (relative stereo) [Example 29, 6-(3-Fluorophenyl)-N-[cis-3-(pyrrolidin-1-ylcarbonyl)cyclohexyl]nicotinamide], the figure is 5.02 nM; as for `O=C(N[C@H]1CCC[C@@H](C(=O)NCc2ccccc2)C1)c1ccc(-c2cccc(F)c2)nc1` (relative stereo) [Example 30, N-[cis-3-(Benzylcarbamoyl)cyclohexyl]-6-(3-fluorophenyl)nicotinamide], 25.6 nM; as for `CN(C)C(=O)[C@H]1CCC[C@@H](NC(=O)c2ccc(-c3cccc(F)c3)nc2)C1` (relative stereo) [Example 31, N-[cis-3-(Dimethyicarbamoyl)cyclohexyl]-6-(3-fluorophenyl)nicotinamide], 10.8 nM. The same measure, in the same setting: the result for `CCN(C)C(=O)[C@@H]1CCC[C@H](NC(=O)c2ccc(-c3cccc(F)c3)nc2)C1` (relative stereo) [Example 32, N-{cis-3-[Ethyl(methyl)carbamoyl]cyclohexyl}-6-(3-fluorophenyl)nicotinamide] reads 37.9 nM.
